Drawing on the Deep4Chem optical property database, this text covers absorption maximum for 38 molecules.

This data set in a line: solvent given as SMILES.

Consider `CC(C)CCCCN1CCc2c1ccc1c3c(ccc21)C(=O)CCC3`, for which the absorption maximum (in C1CCCCC1) amounted to 362 nm; the absorption maximum (in CC#N) is given as 370 nm; the absorption maximum (in CC(C)O) is 376 nm; the absorption maximum (in CCC(C)=O) turned out to be 368 nm; the absorption maximum (in CCO) came out at 374 nm; the absorption maximum (in CCOC(C)=O) is listed as 366 nm. In addition, the absorption maximum was determined as 376 nm (in CS(C)=O), 368 nm (in Cc1ccccc1), 373 nm (in ClCCl) and 370 nm (in Clc1ccccc1).

As for `CC1(C)c2cc(/C=C/c3nc(/C=C/c4ccc5c(c4)C(C)(C)c4cc(N(c6ccccc6)c6ccc7ccccc7c6)ccc4-5)nc(/C=C/c4ccc5c(c4)C(C)(C)c4cc(N(c6ccccc6)c6ccc7ccccc7c6)ccc4-5)n3)ccc2-c2ccc(N(c3ccccc3)c3ccc4ccccc4c3)cc21`, under “in C1CCOC1”, the absorption maximum came to 403 nm.

`COc1cc(-c2ncc(-c3ccncc3)o2)cc(OC)c1OC` came in with an absorption maximum (in ClCCl) of 326 nm.

Consider `O=S(=O)(c1ccccc1)c1ccc(-c2ccc3c(c2)c2cc(-c4ccc(S(=O)(=O)c5ccccc5)cc4)ccc2n3-c2ccccc2)cc1`, for which the absorption maximum (in CCCCCC) turned out to be 343 nm; the absorption maximum (in CN(C)C=O) is listed as 345 nm; the absorption maximum (in CO) worked out at 343 nm; the absorption maximum (in Cc1ccccc1) came out at 340 nm; the absorption maximum (in ClCCl) amounted to 343 nm.

Regarding `Cc1nc2c(ccc3c2sc(/C=C/c2ccc(-n4c5ccccc5c5ccccc54)cc2)[n+]3C)s1`, the absorption maximum turned out to be 446 nm (in CO) and 488 nm (in ClC(Cl)Cl).

As for `Cc1ccc2nc3cc4c(cc3c(-c3ccccc3)c2c1)[Si](C)(C)O[Si](C)(C)O[Si]4(C)C`, the absorption maximum (in ClCCl) came to 371 nm.

For `N#Cc1ccc(/C=C/c2ncc(-c3ccccc3)o2)cc1`, the absorption maximum (in ClCCl) worked out at 360 nm.

`CC(=O)Nc1ccc(C2=N/C(=C\c3ccc(C#N)cc3)C(=O)O2)cc1` registered an absorption maximum (in C1COCCO1) of 389 nm.

As to `CCN(CC)c1ccc(-c2nc3c4ccccc4n(C)c3nc2-c2ccc([B-](F)(c3c(C)cc(C)cc3C)c3c(C)cc(C)cc3C)cc2)cc1`, the absorption maximum (in C1CCOC1) is given as 411.11 nm.

For the setting “in Cc1ccccc1”, `COCCC1=Cc2nc1ccc1[nH]c(cc1CCOC)c1nc(c(O)cc3[nH]c2cc3CCOC)C(CCOC)=C1` displayed an absorption maximum of 680 nm.

As to `Cn1nc(-c2ccccc2)cc1-c1ccccc1`, under “in ClCCl”, the absorption maximum is listed as 254 nm.

Turning to `CC1=C(c2cccs2)C(C)=[N+]2C1=C(c1ccc(OS(=O)(=O)c3ccc([N+](=O)[O-])cc3[N+](=O)[O-])cc1)c1c(C)c(-c3cccs3)c(C)n1[B-]2(F)F`, the absorption maximum reads like this: (in CO) 526 nm; (in Cc1ccccc1) 535 nm; (in ClCCl) 533 nm.

For `CCOC(=O)c1c(-c2cc3ccccc3oc2=O)nn(-c2ccc(C)c(C)c2)c1C(=O)OCC`, the absorption maximum (in ClCCl) is listed as 322 nm.

Turning to `CCCCCN1c2ccccc2Sc2cc(/C=C/c3ccc(/C=C(\C#N)C(=O)O)s3)ccc21`, where the note is “in ClCCl”, the absorption maximum turned out to be 494 nm.

On to `CN(C)c1ccc(/C=C/c2cc[n+](CCC[n+]3ccc(/C=C/c4ccc(N(C)C)cc4)cc3)cc2)cc1`, for which the absorption maximum worked out at 485 nm (in CC1COC(=O)O1); 488 nm (in CC#N); 484 nm (in CC(C)=O); 499 nm (in CC(C)O); 500 nm (in CCO); 485 nm (in CN(C)C=O). For the same molecule, the absorption maximum is listed as 494 nm (in CO); 485 nm (in CS(C)=O); 501 nm (in ClC(Cl)Cl); 466 nm (in O); 498 nm (in c1ccncc1).

Consider `Cc1cc(C)c(C2=C3C=c4c(c5ccccc5c5ccccc45)=[N+]3[B-](F)(F)n3c2cc2c4ccccc4c4ccccc4c23)c(C)c1`, for which the absorption maximum is, setting by setting: (in C1CCCCC1) 674 nm; (in C1CCOC1) 673 nm; (in CC#N) 666 nm; (in Cc1ccccc1) 680 nm; (in ClCCl) 673 nm.

`CCc1nc2c(nc1CC)C(c1ccccc1)=[N+]1C2=Nc2c3nc(CC)c(CC)nc3c(-c3ccccc3)n2[B-]1(F)F`: for the setting “in C1CCOC1”, the absorption maximum turned out to be 685 nm.

For `CCN(CC)c1ccc(/C=N/c2cc3ccccc3cc2/N=C/c2ccc(N(CC)CC)cc2O)c(O)c1`, the absorption maximum was found to be 403 nm (in CC#N), 416 nm (in CN(C)C=O) and 447 nm (in ClCCl).

As to `N#Cc1cc2ccc(cc2)c2cccc3cccc(c4ccc(cc4)cc(C#N)c4ccc(cc4)c4cccc5cccc(c6ccc1cc6)c54)c32`, the absorption maximum (in Cc1ccccc1) amounted to 350 nm.

Turning to `CC1(C)Cc2c(c3ccccc3c3nc4c(nc23)c2c(c3ccccc34)OC(C)(C)C2)O1`, the absorption maximum (in C1CCCCC1) is reported as 451.06 nm; the absorption maximum (in C1COCCO1) worked out at 453.93 nm; the absorption maximum (in CC#N) was found to be 454.96 nm; the absorption maximum (in CC(C)O) is listed as 452.08 nm; the absorption maximum (in CCCCCC) was determined as 450.05 nm; the absorption maximum (in ClC(Cl)Cl) came to 457.04 nm. The same molecule had an absorption maximum (in c1ccccc1) of 454.96 nm.

In turn, `COc1ccc(-c2oc3cccc4c5c(-c6ccc(OC)cc6)c(=N)oc6cccc(c2c34)c65)cc1` showed an absorption maximum (in ClC(Cl)Cl) of 408 nm.

For the molecule `CCCCCCCCn1nnc(-c2ccc(C#Cc3ccc(C#Cc4ccc(-c5nnn(CCCCCCCC)n5)cc4)c4nc5c6ccccc6c6ccccc6c5nc34)cc2)n1`, the absorption maximum is, setting by setting: (in C1CCOC1) 428 nm; (in Cc1ccccc1) 428 nm; (in ClCCl) 428 nm.

For the setting “in ClCCl”, `Cc1cc(C)n2c1C=[N+]1[N+](=C3C=NC=CN3[B-]1(F)F)[B-]2(F)F` returned an absorption maximum of 467 nm.

The molecule `CCCCN(CCCC)c1ccc2c(c1)C#CC#Cc1cc(N(CCCC)CCCC)ccc1C#Cc1cc(c3cc1C#Cc1ccc(C(F)(F)F)cc1C#CC#Cc1cc(C(F)(F)F)ccc1C#C3)C#C2` showed an absorption maximum (in ClCCl) of 466 nm.

For `CN(C)c1ccc(-c2cc(-c3cccs3)nc(-c3ccccc3)n2)cc1`, the absorption maximum (in ClC(Cl)Cl) is recorded as 371 nm.

With `c1ccc2cc(-c3cc(-c4nccs4)nc(-c4nccs4)c3)ccc2c1`, the absorption maximum is, setting by setting: (in CC#N) 323 nm; (in CCCCCC) 333 nm; (in CO) 333 nm; (in ClC(Cl)Cl) 329 nm.

Take `c1ccc(-c2nc(-c3ccccc3)nc(-c3ccc(N4c5ccccc5C5(c6ccccc64)c4ccccc4C4(c6ccccc6Sc6ccccc64)c4ccccc45)cc3)n2)cc1`: where the note is “in Cc1ccccc1”, the absorption maximum stood at 394.63 nm.

Regarding `Cc1cc(C2(c3cc(C)c(O)c(Br)c3)OS(=O)(=O)c3ccccc32)cc(Br)c1O`, the absorption maximum was 396 nm (in C1CCOC1); 396 nm (in C1COCCO1); 398 nm (in CC#N); 411 nm (in CC(C)(C)O); 394 nm (in CC(C)=O); 413 nm (in CC(C)O). Further, the absorption maximum runs as follows: (in CCCCCO) 417 nm; (in CCCO) 415 nm; (in CCO) 414 nm; (in CCOC(C)=O) 395 nm; (in CCOCC) 395 nm.

Molecule `CC(=O)c1ccc2ccc3c(NCCC(=O)NCCCCCCc4nc5c(=O)[nH]c(N)nc5n4[C@H]4C[C@H](O)[C@@H](CO)O4)ccc4ccc1c2c43` registered an absorption maximum (in C1CCOC1) of 451 nm; an absorption maximum (in CC#N) of 440 nm; an absorption maximum (in CC(C)O) of 452 nm; an absorption maximum (in CCO) of 451 nm; an absorption maximum (in CN(C)C=O) of 452 nm; an absorption maximum (in CO) of 447 nm. Besides, the absorption maximum came out at 456 nm (in CS(C)=O), 460 nm (in O) and 464 nm (in OCC(O)CO).

For `COC(=O)C1=C(C(=O)OC)C2(c3cc([N+](=O)[O-])ccc3-c3ccc([N+](=O)[O-])cc32)C2(/C=C/c3ccccc3)c3cc(OC)c(OC)cc3CCN12` (configuration not stated), where the note is “in ClCCl”, the absorption maximum was found to be 337 nm.

Regarding `c1ccc(-c2nc(-c3cccs3)[nH]c2-c2ccccc2)cc1`, under “in CC#N”, the absorption maximum is recorded as 317 nm.

Take `CN(C)c1ccc2nc(-c3ccc(C(=O)O)cc3)sc2c1`: the absorption maximum reads like this: (in C1CCCCC1) 387 nm; (in CC#N) 390 nm; (in CC(C)O) 374 nm; (in CO) 377 nm; (in CS(C)=O) 400 nm; (in ClC(Cl)Cl) 400 nm. In addition, the absorption maximum (in c1ccccc1) is recorded as 394 nm.

`COc1cc(OC)cc(C2=C(c3cc(OC)c(OC)c(OC)c3)C3=Nc4c(-c5cc(OC)c(OC)c(OC)c5)c(-c5cc(OC)cc(OC)c5)c(-c5ccc(C(C)(C)C)cc5)n4[B-](F)(F)[N+]3=C2c2ccc(C(C)(C)C)cc2)c1` registered an absorption maximum (in Cc1ccccc1) of 674 nm.

`O=c1c2cccc3cccc(c32)c2nc3c(F)c(F)c(F)c(F)c3n12` had an absorption maximum (in ClCCl) of 382 nm.

As to `CCCCCCCCCCCCCCOc1ccc(C#Cc2cc3nc4c(OCCCCCCCCCCCC)cc5c6cc(OCCCCCCCCCCCC)c(OCCCCCCCCCCCC)cc6c6cc(OCCCCCCCCCCCC)c(OCCCCCCCCCCCC)cc6c5c4nc3cc2C#Cc2ccc(OCCCCCCCCCCCCCC)cc2)cc1`, where the note is “in ClC(Cl)Cl”, the absorption maximum is on record as 486 nm.

As to `F[B-]1(F)N(c2ccccc2)C=Cc2cccc[n+]21`, the absorption maximum is, setting by setting: (in C1CCCCC1) 442 nm; (in C1CCOC1) 425 nm; (in CC#N) 412 nm; (in CC(C)=O) 422 nm; (in CCO) 418 nm; (in CCOC(C)=O) 427 nm. Moreover, the absorption maximum is, setting by setting: (in CO) 417 nm; (in O) 396 nm.

Regarding `c1ccc(C[n+]2ccc(-c3cc[n+](Cc4ccccc4)cc3)cc2)cc1`, the absorption maximum (in CC#N) is on record as 260 nm.

Turning to `CN(C)c1ccc(C#Cc2ncnc3ccccc23)cc1`, for the setting “in ClCCl”, the absorption maximum was found to be 384 nm.
